# Source: ChEMBL document CHEMBL2429852, “Synthesis and evaluation of new chalcones, derived pyrazoline and cyclohexenone derivatives as potent antimicrobial, antitubercular and antileishmanial agents” (Med Chem Res, 2013)
# Key:
# Aspergillus clavatus = assay: Antifungal activity against Aspergillus clavatus MTCC 1323 assessed as growth inhibition by broth microdilution method; format: functional
# Aspergillus niger = assay: Antifungal activity against Aspergillus niger MTCC 282 assessed as growth inhibition by broth microdilution method; format: functional
# Candida albicans [1] = assay: Antifungal activity against Candida albicans MTCC 227 assessed as growth inhibition by broth microdilution method; format: functional
# [2] = tested on: Mycobacterium tuberculosis; assay: Antitubercular activity against Mycobacterium tuberculosis H37Rv assessed as growth inhibition after 12 to 28 days by Lowenstein-Jensen agar method; format: functional; settings: for MIC: Mycobacterium tuberculosis, H37Rv
# Leishmania braziliensis = assay: Antileishmanial activity against promastigote stage of Leishmania braziliensis H3 assessed as parasite growth inhibition after 72 hrs by Neubauer chamber counting method; format: functional, organism-based
# Staphylococcus aureus [3] = assay: Antibacterial activity against Staphylococcus aureus MTCC 96 assessed as growth inhibition by broth microdilution method; format: functional
# Staphylococcus aureus [4] = assay: Potency index, ratio of ampicillin MIC to compound MIC for Staphylococcus aureus MTCC 96; format: functional
# Streptococcus pyogenes [5] = assay: Antibacterial activity against Streptococcus pyogenes MTCC 443 assessed as growth inhibition by broth microdilution method; format: functional
# Escherichia coli [6] = assay: Antibacterial activity against Escherichia coli MTCC 442 assessed as growth inhibition by broth microdilution method; format: functional
# Pseudomonas aeruginosa [7] = assay: Antibacterial activity against Pseudomonas aeruginosa MTCC 2488 assessed as growth inhibition by broth microdilution method; format: functional
# Escherichia coli [8] = assay: Potency index, ratio of ampicillin MIC to compound MIC for Escherichia coli MTCC 442; format: functional
# Candida albicans [9] = assay: Potency index, ratio of griseofulvin MIC to compound MIC for Candida albicans MTCC 227; format: functional
# Pseudomonas aeruginosa [10] = assay: Potency index, ratio of ampicillin MIC to compound MIC for Pseudomonas aeruginosa MTCC 2488; format: functional
# Streptococcus pyogenes [11] = assay: Potency index, ratio of ampicillin MIC to compound MIC for Streptococcus pyogenes MTCC 443; format: functional
# [12] = Selectivity index, ratio of CC50 for mouse J774A1 cells to IC50 for promastigote stage of Leishmania braziliensis H3; format: functional, J774.A1
# [13] = Cytotoxicity against mouse J774A1 cells after 72 hrs by MTT assay; format: cell-based, J774.A1
# [14] = Leishmania braziliensis, H3, 72 h, read-out: IC50
SMILES,MIC99 (Aspergillus clavatus) [µg/mL],MIC99 (Aspergillus niger) [µg/mL],MIC99 (Candida albicans [1]) [µg/mL],growth inhibition (GI) [2] [%],MIC [2] [µg/mL],IC50 (Leishmania braziliensis),MIC99 (Staphylococcus aureus [3]) [µg/mL],Ratio (Staphylococcus aureus [4]),MIC99 (Streptococcus pyogenes [5]) [µg/mL],MIC99 (Escherichia coli [6]) [µg/mL],MIC99 (Pseudomonas aeruginosa [7]) [µg/mL],Ratio (Escherichia coli [8]),Ratio (Candida albicans [9]),Ratio (Pseudomonas aeruginosa [10]),IC50 (Leishmania braziliensis; [14]) [µM],Ratio (Streptococcus pyogenes [11]),Ratio CC50/IC50 [12],CC50 at 72 h [13] [µM]
COC1=CC(=O)C[C@@H](C)[C@]12Oc1c(Cl)c(OC)cc(OC)c1C2=O [GRISEOFULVIN],100,100,500,,,,,,,,,,,,,,,
CO[C@H]1/C=C/O[C@@]2(C)Oc3c(C)c(O)c4c(O)c(c(/C=N/N5CCN(C)CC5)c(O)c4c3C2=O)NC(=O)/C(C)=C\C=C\[C@H](C)[C@H](O)[C@@H](C)[C@@H](O)[C@@H](C)[C@H](OC(C)=O)[C@@H]1C [RIFAMPIN],,,,98,40,,,,,,,,,,,,,
O=C(/C=C/c1ccc2ccccc2c1)c1cccc([N+](=O)[O-])c1,1000,1000,500,98,500,Not Active,100,2,125,62.5,200,2,,,,,,
O=[N+]([O-])c1cccc(C2=NNC(c3ccc4c(c3)OCO4)C2)c1 (centres undefined),1000,1000,250,98,500,Not Active,100,,125,100,200,,2,,,,,
COc1ccc(/C=C/C(=O)c2cccc([N+](=O)[O-])c2)cc1,200,200,1000,98,1000,Not Active,500,,500,200,200,,,,,,,
COc1ccc(C2CC(c3cccc([N+](=O)[O-])c3)=NN2C(C)=O)c(OC)c1OC (centres undefined),250,250,1000,99,250,Not Active,250,,250,100,100,,,,,,,
O=[N+]([O-])c1cccc(C2=NNC(c3ccc4ccccc4c3)C2)c1 (centres undefined),250,100,100,99,62.5,Not Active,50,2,125,250,25,,5,4,,,,
COc1ccc(C2CC(c3cccc([N+](=O)[O-])c3)=NN2)cc1 (centres undefined),1000,1000,250,99,250,,500,,500,62.5,100,,2,,> 100,,,
CC(=O)N1N=C(c2cccc([N+](=O)[O-])c2)CC1/C=C/c1ccccc1 (centres undefined),> 1000,> 1000,500,98,250,Not Active,250,,25,62.5,100,4,2,,,5,,
COc1ccc(C2CC(c3cccc([N+](=O)[O-])c3)=NN2C(C)=O)cc1OC (centres undefined),500,500,200,99,500,Not Active,125,,125,500,250,,2,,,,,
CC(=O)N1N=C(c2cccc([N+](=O)[O-])c2)CC1c1ccc2c(c1)OCO2 (centres undefined),500,500,500,99,250,Not Active,250,,250,250,200,,,,,,,
COc1cc(OC)c(OC)cc1/C=C/C(=O)c1cccc([N+](=O)[O-])c1,1000,1000,1000,99,250,Not Active,500,,500,125,125,,,,,,,
CC(=O)N1N=C(c2cccc([N+](=O)[O-])c2)CC1c1ccc2ccccc2c1 (centres undefined),> 1000,> 1000,250,98,1000,Not Active,100,,100,250,250,,2,,,,,
COc1cc(OC)c(C2CC(c3cccc([N+](=O)[O-])c3)=NN2C(C)=O)cc1OC (centres undefined),250,250,1000,98,500,Not Active,100,,125,125,125,,,,,,,
CCOC(=O)C1C(=O)C=C(c2cccc([N+](=O)[O-])c2)CC1c1ccc2c(c1)OCO2 (centres undefined),1000,1000,500,99,250,Not Active,250,,200,125,200,,,,,,,
COc1ccc(/C=C/C(=O)c2cccc([N+](=O)[O-])c2)c(OC)c1OC,> 1000,> 1000,1000,98,500,,250,,250,200,200,,,,8.9,,10.06,89.5
COc1cc(/C=C/C(=O)c2cccc([N+](=O)[O-])c2)cc(OC)c1OC,> 1000,> 1000,250,99,25,,100,,100,250,250,,2,,9.3,,5.26,49
CCOC(=O)C1C(=O)C=C(c2cccc([N+](=O)[O-])c2)CC1c1ccc(OC)cc1 (centres undefined),> 1000,> 1000,500,98,500,Not Active,250,,500,100,200,,,,,,,
COc1ccc(C2CC(c3cccc([N+](=O)[O-])c3)=NN2C(C)=O)cc1 (centres undefined),1000,1000,1000,99,250,Not Active,250,,250,250,250,,,,,,,
COc1ccc(/C=C/C(=O)c2cccc([N+](=O)[O-])c2)cc1OC,> 1000,> 1000,500,98,500,,200,,200,100,200,,,,> 100,,,
O=C(/C=C/c1ccc2c(c1)OCO2)c1cccc([N+](=O)[O-])c1,1000,1000,250,99,250,Not Active,250,,250,250,250,,2,,,,,
COc1cc(C2CC(c3cccc([N+](=O)[O-])c3)=NN2C(C)=O)cc(OC)c1OC (centres undefined),500,500,250,99,12.5,Not Active,250,,250,250,200,,2,,,,,
O=C(/C=C/C=C/c1ccccc1)c1cccc([N+](=O)[O-])c1,1000,1000,250,97,1000,Not Active,125,,125,200,100,,2,,,,,
CC1(C)S[C@@H]2[C@H](NC(=O)[C@H](N)c3ccccc3)C(=O)N2[C@H]1C(=O)O [AMPICILLIN],,,,,,,250,,100,100,100,,,,,,,
CCOC(=O)C1C(=O)C=C(c2cccc([N+](=O)[O-])c2)CC1c1cc(OC)c(OC)c(OC)c1 (centres undefined),> 1000,> 1000,100,99,250,Not Active,200,,200,200,200,,,,,,,
